For one data set, the system named is MDMΦs. Put plainly: Cytotoxicity, MTS cell proliferation assay. The class given is cell-based, human. Here is the method:
Cytotoxicity of compounds was assessed by a cell proliferation assay for metabolic activity using a CellTiter 96 AQueous One Solution Cell Proliferation Assay (Promega) as per the manufacturer’s instructions. Briefly, 20 μl of a solution containing tetrazolium compound [3-(4,5-[…])-5-(3-carboxymethoxyphenyl)-2-(4-sulfophenyl)-2H-tetrazolium; MTS] and electron coupling reagent (phenazine ethosulfate) was added to cells covered or suspended in 100 μl of culture medium in a 96-well plate. Samples were incubated for approximately 4 hours (37°C, 5% CO2), and the absorbance at 490 nm (A490) was measured on a SpectraMax M5 microplate reader (Molecular Devices).

The next data set has as its target T1, ER α-glucosidase I (Homo sapiens, UniProt Q13724).
T1 construct: endogenous in cells; host or cells: primary human monocyte-derived macrophages (MDMΦ)
T1 sequence (Q13724 1-837): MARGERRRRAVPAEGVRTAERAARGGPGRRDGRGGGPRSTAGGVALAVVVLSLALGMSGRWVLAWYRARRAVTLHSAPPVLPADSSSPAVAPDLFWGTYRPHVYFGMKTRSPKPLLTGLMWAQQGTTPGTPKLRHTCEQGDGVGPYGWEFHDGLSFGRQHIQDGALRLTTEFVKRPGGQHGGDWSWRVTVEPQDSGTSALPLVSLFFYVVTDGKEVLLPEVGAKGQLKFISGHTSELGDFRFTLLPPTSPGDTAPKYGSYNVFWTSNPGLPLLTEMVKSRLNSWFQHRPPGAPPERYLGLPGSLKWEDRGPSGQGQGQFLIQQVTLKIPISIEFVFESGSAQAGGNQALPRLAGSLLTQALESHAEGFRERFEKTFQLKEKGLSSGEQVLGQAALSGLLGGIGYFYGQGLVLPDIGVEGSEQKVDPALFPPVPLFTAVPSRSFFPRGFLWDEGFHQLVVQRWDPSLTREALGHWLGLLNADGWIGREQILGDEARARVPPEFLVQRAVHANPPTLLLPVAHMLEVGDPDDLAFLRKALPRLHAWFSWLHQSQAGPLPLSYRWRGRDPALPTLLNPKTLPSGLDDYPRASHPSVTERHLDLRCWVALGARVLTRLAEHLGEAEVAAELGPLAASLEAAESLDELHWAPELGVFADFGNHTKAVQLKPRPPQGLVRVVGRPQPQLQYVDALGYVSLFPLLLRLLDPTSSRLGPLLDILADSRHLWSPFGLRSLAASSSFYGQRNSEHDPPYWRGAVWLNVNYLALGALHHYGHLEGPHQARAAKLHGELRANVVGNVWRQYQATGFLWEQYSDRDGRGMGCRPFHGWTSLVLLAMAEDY
Put plainly: Free oligosaccharide analysis in MDMΦs: Glc3Man5GlcNAc1. It is filed as cell-based. Particulars: 48 h; for accumulation of Glc3Man5GlcNAc1: MDMΦs; for FOS representative of ER α-glucosidase I inhibition (Glc3Man5GlcNAc1): MNTD of iminosugar (NB-DNJ 100 μM), uninfected MDMΦs. On the procedure: (§1) MDMΦ were infected with DENV2 16681 diluted to a multiplicity of infection (MOI) of 1 in X-VIVO10 without supplements for 90 minutes (20°C, with rocking). Upon removal of virus, fresh MDMΦ growth medium without IL-4 but containing serial dilutions of drug or control was placed on the cells, and cells were incubated for 48 hours (37°C, 5% CO2). For collection of infectious virus, supernatant was harvested and centrifuged for 5 minutes (room temperature, 400 x g) to pellet any cells/debris, and supernatants were aliquoted and stored at -80°C until analysis by plaque assay. In the case of FOS and GSL assays where MDMΦ were uninfected, treatments were essentially as above except that no virus was added and cells were washed three times with sterile PBS after 24 or 48 hours as per sample time point. On the third wash, cells were removed from tissue culture plastic by mechanical disruption (scraping) and transferred to microcentrifuge tubes for centrifugation (room temperature, 4000 x g, 5 minutes). Cells were lysed by three cycles of freeze-thawing (alternating room temperature and –80°C) in deionised H2O and stored at –80°C for subsequent protein, FOS, or GSL assay.
MDMΦ FOS were detected as previously described by Alonzi et al.. Cells were cultured in 6-well plates as described above, and protein lysates were prepared according to the freeze/thaw protocol. Following cell lysis, samples were subjected to mixed-bed ion exchange and then lyophilised. FOS were labelled with 2-aminobenzoic acid (2-AA) and purified using a DPA-6S column (Sigma). Unconjugated 2-AA was removed by phase splitting with ethyl acetate, and samples were lyophilised and resuspended in water and then purified using a con-A column. Glycans were separated by normal phase-high performance liquid chromatography (NP-HPLC), and peak area was used to assess molar quantity in comparison to standards of known identity and quantity. FOS generation was normalised to protein concentration based on a modified Bradford assay as previously described. Briefly, cell lysates were added in a 1:1 volumetric ratio to 1x Bradford Quick Start Reagent (Bio-Rad) and incubated at 20°C for 5 minutes. Absorbance values (Axxx) at 595 nm and 420 nm were measured, and the ratio of A595 to A420 was used to determine protein concentration in comparison to a serially diluted standard of bovine serum albumin.

The next data set concerns DENV2 strain 16681. In words: In vitro antiviral assay: infectious DENV titer from infected MDMΦs by LLC-MK2 plaque assay. The class given is cell-based, dengue virus serotype 2.
The test system of data set [1] is lysosomal β-N-acetylhexosaminidase. In words: Free oligosaccharide analysis in MDMΦs: hexosaminidase-related FOS. It is filed as cell-based, human. Particulars: MNTD, 48 h. Here is the method:
as §1, with “On the third wash, cells were removed from tissue culture plastic by mechanical disruption (scraping) and transferred to microcentrifuge tubes for centrifugation (room temperature, 4000 x g, 5 minutes). Cells were lysed by three cycles of freeze-thawing (alternating room temperature and –80°C) in deionised H2O and stored at –80°C for subsequent protein, FOS, or GSL assay.” left out
MDMΦ FOS were detected as previously described by Alonzi et al.. […] Glycans were separated by normal phase-high performance liquid chromatography (NP-HPLC), and peak area was used to assess molar quantity in comparison to standards of known identity and quantity. […] Absorbance values (Axxx) at 595 nm and 420 nm were measured, and the ratio of A595 to A420 was used to determine protein concentration in comparison to a serially diluted standard of bovine serum albumin.

The mark [2] stands for this setting: Dengue virus, DENV2, LLC-MK2, 48 h, MDMΦs infected with DENV2 MOI 1, drug 48 h, infectious titer by plaque assay, table values with 95% confidence interval in parentheses, read-out: EC50.

Like-named read-outs stand apart in the source and are kept apart here.

With `CCCC(=O)O[C@H]1CN2CC[C@H](O)[C@@H]2[C@@H](O)[C@@H]1O` [Celgosivir, 6-O-butanoyl-castanospermine], the “MNTD (maximum non-toxic dose tested)” value in the data set with MDMΦs worked out at 100 µM. Further, the “accumulation of Glc3Man5GlcNAc1” value is “not Glc3Man5GlcNAc1” at ER α-glucosidase I (1 μM, all donors); “increasing accumulation of Glc3Man5GlcNAc1” at ER α-glucosidase I (31.6 and 100 μM). Moreover, the EC50 (usually the concentration giving half of the maximal effect) in the data set with DENV2 strain 16681 (setting [2]) worked out at 5 µM; in the data set on DENV2 strain 16681 (MDMΦs infected with DENV2 MOI 1, drug 48 h, infectious titer by plaque assay, table values with 95% confidence interval in parentheses, read-out: EC50), 5.17 µM. Moreover, in the data set on DENV2 strain 16681 (EC50 parent / EC50 derivative, parent DNJ or castanospermine), the “Enhancement (fold improvement of antiviral EC50 versus parent compound)” value is recorded as 7 fold.

For `CCCCN1C[C@H](O)[C@@H](O)[C@@H](O)[C@H]1CO` [NB-DGJ], in the data set with MDMΦs, the “MNTD (maximum non-toxic dose tested)” value came out at 100 µM and the “concentration up to which cytotoxicity was not detected” value is > 100 µM. At ER α-glucosidase I, the “FOS representative of ER α-glucosidase I inhibition (Glc3Man5GlcNAc1)” value was “fail to produce detectable ER α-glucosidase associated FOS”. Moreover, the “FOS generated by inhibition of lysosomal β-N-acetylhexosaminidase” value in data set [1] is recorded as “do produce FOS generated by inhibition of lysosomal β-N-acetylhexosaminidase”.

Regarding `CCCCN1C[C@H](O)[C@@H](O)[C@H](O)[C@H]1CO` [NB-DNJ, N-butyl-DNJ], the “MNTD (maximum non-toxic dose tested)” value in the data set with MDMΦs stood at 100 µM. Also, the “accumulation of Glc3Man5GlcNAc1” value at ER α-glucosidase I (1 μM, all donors) is “not Glc3Man5GlcNAc1”. Further, the “FOS representative of ER α-glucosidase I inhibition (Glc3Man5GlcNAc1)” value on ER α-glucosidase I was “accumulation of peaks representative of inhibition of both α-glucosidases”. Also, the EC50 in the data set with DENV2 strain 16681 (setting [2]) is 10.6 µM; in the data set on DENV2 strain 16681 (Dengue virus, DENV2, LLC-MK2, 48 h, MDMΦs, DENV2, 48 h, read-out: 95% CI for antiviral EC50) it was 7.77 to 14.5 µM.

Take `CCCCCCCCCN1C[C@H](O)[C@@H](O)[C@@H](O)[C@H]1CO` [NN-DGJ]: in the data set with MDMΦs, the “MNTD (maximum non-toxic dose tested)” value stood at 31.6 µM. At ER α-glucosidase I, the “FOS representative of ER α-glucosidase I inhibition (Glc3Man5GlcNAc1)” value is listed as “fail to produce detectable ER α-glucosidase associated FOS”. Moreover, the “FOS generated by inhibition of lysosomal β-N-acetylhexosaminidase” value in data set [1] was “do produce FOS generated by inhibition of lysosomal β-N-acetylhexosaminidase”.

Source of the values: PMC4790851, “Iminosugars Inhibit Dengue Virus Production via Inhibition of ER Alpha-Glucosidases—Not Glycolipid Processing Enzymes” (PLoS Neglected Tropical Diseases, 2016).
